Experiments:
[1] = Metabolic stability in human serum assessed as compound remaining at 3 mM after 24 hrs by HPLC analysis; type: ADME, cell-free; details: read-out: Stability
[2] = Metabolic stability in human serum assessed as compound remaining at 3 mM after 72 hrs by HPLC analysis; type: ADME, cell-free; details: read-out: Stability

Compound | remaining at 24 h, 3000 µM [1] [%] | remaining at 72 h, 3000 µM [2] [%]
CC(C)C[C@H](NC(=O)[C@H](CC(=O)O)NC(=O)[C@H](CCC(=O)O)NC(=O)[C@@H](NC(=O)[C@H](CC(C)C)NC(=O)[C@H](CCC(=O)O)NC(=O)C(C)(C)NC(=O)[C@H](Cc1c[nH]c2ccccc12)NC(=O)[C@@H](NC(=O)[C@@H](N)CC(=O)O)[C@@H](C)O)C(C)C)C(=O)N[C@@H](CC(N)=O)C(=O)NCC(=O)NCC(=O)NCC(=O)N[C@@H](CO)C(=O)N[C@@H](Cc1ccc(Br)cc1)C(=O)N[C@@H](CCCNC(=N)N)C(N)=O | 24 | 
CC(C)C[C@@H](NC(=O)[C@@H](CC(=O)O)NC(=O)[C@@H](CCC(=O)O)NC(=O)[C@H](NC(=O)[C@@H](CC(C)C)NC(=O)[C@@H](CCC(=O)O)NC(=O)C(C)(C)NC(=O)[C@@H](Cc1c[nH]c2ccccc12)NC(=O)[C@H](NC(=O)[C@H](N)CC(=O)O)[C@@H](C)O)C(C)C)C(=O)N[C@H](CC(N)=O)C(=O)NCC(=O)NCC(=O)NCC(=O)N[C@@H](CO)C(=O)N[C@@H](Cc1ccc(Br)cc1)C(=O)N[C@@H](CCCNC(=N)N)C(N)=O | 62 | 36

Source: ChEMBL document CHEMBL4184127, “Isolation of a peptide containing d-amino acid residues that inhibits the α-helix-mediated p53-MDM2 interaction from a one-bead one-compound library” (Bioorg Med Chem Lett, 2018)
